We go through twelve compounds from paper PMC9000427, “Synthesis and Anti-Trypanosoma cruzi Biological Evaluation of Novel 2-Nitropyrrole Derivatives” (Molecules, 2022).

One data set can be described thus: in vitro. In kind it is cell-based. The following applies: Chinese hamster, CC50 CHO. How it is done:
(§1) These new derivatives were evaluated in vitro against the intracellular T. cruzi strain X10/7-Silvio by determining their 50% efficacy concentration (EC50) and were compared to the reference anti-T. cruzi drug nifurtimox. The in vitro 50% cytotoxic concentrations (CC50) were assessed on the CHO cell line and compared to a cytotoxic reference drug, doxorubicin. In vitro cytotoxicity against vero host cells was also assessed (vero cells EC50).
The toxicity of compounds towards Chinese hamster ovary cells (CHO-K1, ATCC CCL61) was evaluated by the NRU toxicity test, based on the concentration-dependent reduction of the uptake of the vital dye neutral red when measured 24 h after chemical treatment. Cells were grown in McCoy’s medium supplemented with Penicillin 100 IU/mL and streptomycin 100 μg/mL, and 10% of inactivated calf serum, and incubated at 37 °C in CO2 5% atmosphere. They were seeded into two 96-well tissue culture plates (0.1 mL per well), at a concentration of 1 × 10^5 cells/mL, and incubated at 37 °C (5% CO2) for 24 h, until confluent. The culture medium was decanted and replaced by 100 µL of fresh medium containing the appropriate concentrations of the compounds (eight different concentrations in triplicate), then cells were incubated at 37 °C (5% CO2) in the dark for 24 h. At the end of the incubation period, cells were washed, placed into neutral red medium (50 μg/mL neutral red in complete medium). This vital dye is a weak cationic dye that penetrates membranes of living cells by […] and accumulates intracellularly in lysosomes. On the contrary, alterations of the cell surface or metabolism result in a decreased uptake and binding of NR in non-viable cells. Cells were incubated for 3 h at 37°C, 5% CO2, and then the culture medium was removed, and cells were washed three times with 0.2 mL of PBS to remove excessive dye. Destaining solution (50% ethanol, 1% acetic acid, 49% distilled water; 50µL per well) was added into the wells, and the plates were shaken for 15–20 min at room temperature in the dark. The degree of cell viability was measured by a fluorescence–luminescence reader. The optical density (OD) of each well was read at 540 nm. The results obtained for wells treated with the test compounds were compared to those of untreated control wells (100% viability) and converted to percentage values. The mean OD value of blank wells (containing only neutral red desorbed solution) was subtracted from the mean OD value of three treated wells (dilutions of the test material, positive control or HBSS). The percentages of cell viability were calculated as:Viability (%) = (Mean OD of test wells-mean OD of blanks) × 100 / (Mean OD of negative control − mean OD of blanks)
The concentration of the test substances causing a 50% release of neutral red as compared to the control culture was calculated by non-linear regression analysis using software Phototox Version 2.0.

The subject of data set [1] is T. cruzi X10/7 intracellular amastigotes. Briefly: T. cruzi intracellular assay (infected Vero cells, high-content imaging). In kind it is cell-based, Trypanosoma cruzi. As for the experimental part: The infected Vero cells were then plated into 384-well plates containing the compounds to be tested, at 4000 cells per well in MEM media with 1% FCS. […] The plates were imaged on a Perkin Elmer Operetta high-content imaging system using a 20× objective. Images were analysed using the Columbus system (Perkin Elmer).

The subject of another data set is Vero host cells. Kind of data set: Cytotoxicity against Vero host cells in the T. cruzi intracellular assay. In kind it is cell-based. The settings on record: Chlorocebus sabaeus. How it is done: as §1
Vero cells (ECCAC 84113001) were screened for mycoplasma infection and maintained in MEM medium supplemented with Glutamax (Life Technologies) and 10% (v/v) foetal calf serum (FCS) at 37 °C in the presence of 5% CO2. T. cruzi parasites (Silvio X10/7 A1), a clonal line kindly provided by Susan Wyllie and Prof. Alan Fairlamb were maintained in Vero cells. On a weekly basis, emerged trypomastigotes were used to infect a new Vero monolayer at the multiplicity of infection (MOI) 1.5 [32].
For the primary intracellular assay, the infection conditions were chosen so that no trypomastigote egress occurs during the compound incubation time. First, Vero cells were infected overnight with tissue culture-derived T. cruzi trypomastigotes in T225 tissue culture flasks (MOI 5).
Next, any remaining free trypomastigotes were washed away with serum-free MEM, and the infected Vero cells were harvested by trypsinisation. The infected Vero cells were then plated into 384-well plates containing the compounds to be tested, at 4000 cells per well in MEM media with 1% FCS. After 96h incubation at 37 °C in the presence of 5% CO2, the plates were fixed with 4% formaldehyde for 20 min at room temperature and stained with 5μg/mL Hoechst 33342. The plates were imaged on a Perkin Elmer Operetta high-content imaging system using a 20× objective. Images were analysed using the Columbus system (Perkin Elmer). The algorithm for the primary assay first identified the Vero nuclei followed by the demarcation of the cytoplasm and identification of intracellular amastigotes. This algorithm reported the mean number of parasites per Vero cell and the total number of Vero cells. The data analysis was as previously described.

Setting [2] is: Trypanosoma cruzi, Vero, 96 h, intracellular T. cruzi strain X10/7-Silvio, 96h incubation, mean ± SD of two independent biological replicates, read-out: EC50 T. cruzi.
Setting [3] is: intracellular T. cruzi strain X10/7-Silvio, 96h incubation, mean ± SD of two independent biological replicates, read-out: EC50 T. cruzi.
Where [4] appears, read: Vero host cells, 96h incubation, concentrations up to 50 µM, read-out: Vero cells EC50.
Where [5] appears, read: Trypanosoma cruzi, Vero, Replicate 1, dose response curve, read-out: pXC50 intracellular amastigotes (converted).
Setting [6] is: Trypanosoma cruzi, Vero, Replicate 2, dose response curve, read-out: pXC50 intracellular amastigotes (converted).
Where [7] appears, read: Replicate 1, inhibition of Vero host cell growth, read-out: C_pXC50 host cells.

“And” between values parts separate entries of the source, which are not always exact repeats. Identical values can stand only once. Like-named read-outs stand apart in the source and are kept apart here. A value given as a limit tells only on which side of the number the result lay.

For `CC(C)NC(=O)Cn1cccc1[N+](=O)[O-]` [Compound 20, N-Isopropyl-2-(2-nitro-1H-pyrrol-1-yl)acetamide], the melting point fell in the range of 190 to 191 °C. The cytotoxic concentration (CC50) at 24 h in “in vitro” turned out to be 321 ± 5.3 µM.
With `O=C(Cn1cccc1[N+](=O)[O-])Nc1ccc(Br)cc1` [Compound 16, N-(4-Bromophenyl)-2-(2-nitro-1H-pyrrol-1-yl)acetamide], the EC50 in data set [1] (setting [2]) is less than 10 µM; in data set [1] (setting [3]) it was 6.5 ± 0.6 µM; with Vero host cells (setting [4]), 14.5 ± 0.7 µM. The CC50 at 24 h in the data set “in vitro” amounted to 173 ± 4.6 µM.
In the case of `O=C(Cn1cccc1[N+](=O)[O-])Nc1cccc(C(F)(F)F)c1` [Compound 18, 2-(2-Nitro-1H-pyrrol-1-yl)-N-[3-(trifluoromethyl)phenyl]acetamide], the “maximum effect (percent inhibition of intracellular amastigotes)” value in data set [1] (96h treatment, two independent replicates, normalised to DMSO (0%) and nifurtimox controls (100%)) was 71%. Further, the Emax in data set [1] (Trypanosoma cruzi, Vero, 96 h, 96h treatment, two independent replicates, normalised to DMSO (0%) and nifurtimox controls (100%), read-out: maximum effect (percent inhibition of intracellular amastigotes)) was found to be 79%. The EC50 in data set [1] (setting [5]) is 2.29 µM; in data set [1] (setting [6]), 4.9 µM; in data set [1] (setting [3]) it was < 10 µM and 3.6 µM; in the data set with Vero host cells (setting [7]) it was greater than 50.1 µM; in the data set on Vero host cells (setting [4]), greater than 50 µM. Besides, the midpoint of cytotoxicity in “in vitro”, the CC50 at 24 h, lay at 156 ± 2.9 µM.
As to `CC1CS(=O)(=O)CCN1/N=C/c1ccc([N+](=O)[O-])o1` (centres unmarked) [Nifurtimox, reference compound], the EC50 in data set [1] (setting [2]) was 2.1 ± 0.2 µM; in data set [1] (setting [5]) it was 2.04 µM; in data set [1] (setting [6]), 2.04 µM; with Vero host cells (setting [7]) it was greater than 15.8 µM.
Compound `O=C(Cn1cccc1[N+](=O)[O-])NC1CCCC1` [Compound 21, N-Cyclopentyl-2-(2-nitro-1H-pyrrol-1-yl)acetamide] had a CC50 at 24 h in the data set “in vitro” of 303 ± 6.1 µM.
In the case of `COc1cccc(NC(=O)Cn2cccc2[N+](=O)[O-])c1` [Compound 19, N-(3-Methoxyphenyl)-2-(2-nitro-1H-pyrrol-1-yl)acetamide], the EC50 in data set [1] (setting [2]) was 50 µM; in the data set on Vero host cells (setting [4]), greater than 50 µM. This compound came in with a CC50 at 24 h in “in vitro” of 260 ± 6.3 µM.
The corresponding values for `O=C(Cn1cccc1[N+](=O)[O-])Nc1ccccc1Cl` [Compound 17, N-(2-Chlorophenyl)-2-(2-nitro-1H-pyrrol-1-yl)acetamide] are 50 µM, greater than 50 µM and 198 ± 5.7 µM.
Compound `COc1cccc2c1C(=O)c1c(O)c3c(c(O)c1C2=O)C[C@@](O)(C(=O)CO)C[C@@H]3O[C@H]1C[C@H](N)[C@H](O)[C@H](C)O1` [Doxorubicin, reference compound] yielded a 50% cytotoxic concentration (CC50) at 24 h in “in vitro” of 4.6 ± 0.08 µM.
The compound `O=C(Cn1cccc1[N+](=O)[O-])NCc1cccc(C(F)(F)F)c1` [Compound 15, 2-(2-Nitro-1H-pyrrol-1-yl)-N-[3-(trifluoromethyl)benzyl]acetamide] displayed a melting point of 161 to 162 °C. For the same compound, the EC50 in data set [1] (setting [2]) came out at 41 ± 12.7 µM. The same compound registered a CC50 at 24 h in “in vitro” of 185 ± 5.1 µM. Besides, the EC50 in the data set on Vero host cells (setting [4]) was determined as 43 ± 9.9 µM.
On to `O=C(Cn1cccc1[N+](=O)[O-])NCc1ccccc1` [Compound 3, N-Benzyl-2-(2-nitro-1H-pyrrol-1-yl)acetamide], for which the melting point lay within 174 to 175 °C. Besides, in data set [1] (setting [2]), the EC50 was determined as 34.5 ± 21.9 µM. This compound also returned a cytotoxic concentration (CC50) at 24 h in “in vitro” of 24.3 µM. Also, the EC50 in the data set on Vero host cells (setting [4]) is 42 ± 11.3 µM.
In turn, `O=C(Cn1cccc1[N+](=O)[O-])Nc1ccccc1` [Compound 4, 2-(2-Nitro-1H-pyrrol-1-yl)-N-phenylacetamide] yielded a melting point of 201 to 202 °C. Besides, the EC50 in data set [1] (setting [2]) was less than 10 µM. For the same compound, the EC50 in data set [1] (setting [3]) was 6 µM. This compound came in with a CC50 at 24 h in “in vitro” of 262 ± 3.9 µM. The EC50 in the data set on Vero host cells (setting [4]) was 14 µM.
Take `O=C(Cn1cccc1[N+](=O)[O-])Nc1cc(F)ccc1Br` [Compound 22, N-(2-Bromo-5-fluorophenyl)-2-(2-nitro-1H-pyrrol-1-yl)acetamide]: the melting point was 185 to 186 °C. The same compound gave a CC50 at 24 h in “in vitro” of 188 ± 4.4 µM.

What is called melting point is the temperature of the solid-liquid transition. What is called CC50 is the concentration at which the toxic effect on the cells reaches its halfway point. A high value points to better tolerance by the cells.
